Test results reported in the NIST ThermoML archive (doi:10.1021/je400055v).

Conditions: Liquid, Vibrating tube method

Cc1ccc(O)cc1 [4-methylphenol]
Conditions	mass density [kg/m3]
312.9 K, 1002 kPa	1019.4
312.9 K, 2016 kPa	1020
312.9 K, 3017 kPa	1020.6
312.9 K, 4016 kPa	1021.1
312.9 K, 5002 kPa	1021.7
312.9 K, 6010 kPa	1022.2
312.9 K, 7000 kPa	1022.8
312.9 K, 8006 kPa	1023.3
312.9 K, 9001 kPa	1023.9
312.9 K, 10002 kPa	1024.4
312.9 K, 11006 kPa	1024.9
312.9 K, 12002 kPa	1025.5
312.9 K, 13015 kPa	1026
312.9 K, 14007 kPa	1026.6
312.9 K, 15006 kPa	1027.1
312.9 K, 16019 kPa	1027.6
312.9 K, 17004 kPa	1028.1
312.9 K, 18011 kPa	1028.6
312.9 K, 19009 kPa	1029.2
312.9 K, 20005 kPa	1029.7
312.9 K, 21008 kPa	1030.2
312.9 K, 22004 kPa	1030.7
312.9 K, 23023 kPa	1031.2
312.9 K, 24004 kPa	1031.7
312.9 K, 25006 kPa	1032.2
322.78 K, 1019 kPa	1011.6
322.78 K, 2015 kPa	1012.2
322.78 K, 3002 kPa	1012.8
322.78 K, 4013 kPa	1013.4
322.78 K, 5011 kPa	1013.9
322.78 K, 6018 kPa	1014.5
322.78 K, 7022 kPa	1015.1
322.78 K, 8001 kPa	1015.7
322.78 K, 9015 kPa	1016.3
322.78 K, 10006 kPa	1016.8
322.78 K, 11002 kPa	1017.4
322.78 K, 12018 kPa	1017.9
322.78 K, 13002 kPa	1018.4
322.78 K, 14016 kPa	1019
322.78 K, 15001 kPa	1019.5
322.78 K, 16000 kPa	1020.1
322.78 K, 17001 kPa	1020.6
322.78 K, 18029 kPa	1021.2
322.78 K, 19015 kPa	1021.7
322.78 K, 20011 kPa	1022.2
322.78 K, 21022 kPa	1022.8
322.78 K, 22002 kPa	1023.3
322.78 K, 23006 kPa	1023.8
322.78 K, 24010 kPa	1024.4
322.78 K, 25023 kPa	1024.9
332.54 K, 1040 kPa	1003.7
332.54 K, 2019 kPa	1004.3
332.54 K, 3013 kPa	1005
332.54 K, 4019 kPa	1005.6
332.54 K, 5001 kPa	1006.2
332.54 K, 6001 kPa	1006.8
332.54 K, 7002 kPa	1007.5
332.54 K, 8041 kPa	1008.1
332.54 K, 9000 kPa	1008.7
332.54 K, 10001 kPa	1009.2
332.54 K, 11006 kPa	1009.7
332.54 K, 12001 kPa	1010.4
332.54 K, 13008 kPa	1010.9
332.54 K, 14004 kPa	1011.5
332.54 K, 15003 kPa	1012.1
332.54 K, 16015 kPa	1012.7
332.54 K, 17011 kPa	1013.3
332.54 K, 18014 kPa	1013.9
332.54 K, 19014 kPa	1014.4
332.54 K, 20009 kPa	1014.9
332.54 K, 21013 kPa	1015.4
332.54 K, 22007 kPa	1016
332.54 K, 23000 kPa	1016.6
332.54 K, 24001 kPa	1017.1
332.54 K, 25032 kPa	1017.7
342.37 K, 1001 kPa	995.7
342.37 K, 2002 kPa	996.4
342.37 K, 3004 kPa	997.1
342.37 K, 4025 kPa	997.7
342.37 K, 5036 kPa	998.2
342.37 K, 6032 kPa	998.8
342.37 K, 7001 kPa	999.3
342.37 K, 8020 kPa	999.9
342.37 K, 9003 kPa	1000.6
342.37 K, 10002 kPa	1001.3
342.37 K, 11036 kPa	1001.9
342.37 K, 12001 kPa	1002.6
342.37 K, 13020 kPa	1003.2
342.37 K, 14019 kPa	1003.9
342.37 K, 15007 kPa	1004.5
342.37 K, 16000 kPa	1005.1
342.37 K, 17022 kPa	1005.6
342.37 K, 18014 kPa	1006.2
342.37 K, 19033 kPa	1006.8
342.37 K, 20005 kPa	1007.4
342.37 K, 21005 kPa	1007.9
342.37 K, 22010 kPa	1008.4
342.37 K, 22962 kPa	1009
342.37 K, 24021 kPa	1009.7
342.37 K, 25017 kPa	1010.2
352.15 K, 1023 kPa	987.9
352.15 K, 2007 kPa	988.5
352.15 K, 3000 kPa	989.1
352.15 K, 4003 kPa	989.8
352.15 K, 5001 kPa	990.4
352.15 K, 6009 kPa	991.1
352.15 K, 7001 kPa	991.7
352.15 K, 8037 kPa	992.4
352.15 K, 9008 kPa	993
352.15 K, 10040 kPa	993.7
352.15 K, 11006 kPa	994.3
352.15 K, 12001 kPa	994.9
352.15 K, 13001 kPa	995.5
352.15 K, 14009 kPa	996.2
352.15 K, 15000 kPa	996.8
352.15 K, 16010 kPa	997.4
352.15 K, 17028 kPa	998
352.15 K, 18020 kPa	998.6
352.15 K, 19045 kPa	999.3
352.15 K, 20018 kPa	1000
352.15 K, 21038 kPa	1000.5
352.15 K, 22000 kPa	1001.1
352.15 K, 23065 kPa	1001.8
352.15 K, 24024 kPa	1002.4
352.15 K, 25039 kPa	1002.9
361.9 K, 1017 kPa	979.6
361.9 K, 1991 kPa	980.3
361.9 K, 3004 kPa	981
361.9 K, 4027 kPa	981.5
361.9 K, 4992 kPa	982.3
361.9 K, 6000 kPa	983.1
361.9 K, 7033 kPa	983.6
361.9 K, 8010 kPa	984.4
361.9 K, 9001 kPa	985
361.9 K, 9998 kPa	985.8
361.9 K, 10994 kPa	986.5
361.9 K, 11976 kPa	987
361.9 K, 12949 kPa	987.7
361.9 K, 14010 kPa	988.3
361.9 K, 15017 kPa	989
361.9 K, 15992 kPa	989.6
361.9 K, 16992 kPa	990.3
361.9 K, 18007 kPa	990.8
361.9 K, 19034 kPa	991.6
361.9 K, 19992 kPa	992.1
361.9 K, 21000 kPa	992.9
361.9 K, 22059 kPa	993.4
361.9 K, 23020 kPa	994.1
361.9 K, 24014 kPa	994.8
361.9 K, 25002 kPa	995.3
